Patent US20240101570A1 (AMGEN INC., priority 2020, published 2024)

Legend:
HCT116 WT cells = assay: HCT116 WT cell proliferation / viability (CellTiter-Glo, 6 days); format: cell-based; settings: Homo sapiens, HCT-116, 144 h, HCT116 WT cells, 6 days, CellTiter-Glo; read-out: HCT-116 WT IC50
How it was run: (§1)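 Viability read by CellTiter-Glo after 6-day compound exposure of MTAP-null and wild-type HCT116 cells grown in RPMI 1640 with 10% FBS. Dosing used 1:3 steps from 1 or 10 μM (8-9 points) or 1:2 steps from 10 or 50 μM (22 points); IC50 taken where fitted curve crosses 50% of control.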

HCT116 MTAP null cells = assay: HCT116 MTAP null cell proliferation / viability (CellTiter-Glo, 6 days); format: cell-based; settings: HCT116-MTAP null, 144 h, HCT116 MTAP null cells, 6 days, CellTiter-Glo; read-out: HCT-116 MTAP null IC50
How it was run: as §1

| SMILES | IC50 (HCT116 WT cells) [nM] | IC50 (HCT116 MTAP null cells) [nM] |
| --- | --- | --- |
| CCN(C(=O)c1ccc2nc(N)c3c(c2c1)COC3)C(C)c1ccc(Cl)nc1 (racemic) [Example 727, 4-amino-N-((1R)-1-(6-chloro-3-pyridinyl)ethyl)-N-ethyl-1,3-dihydrofuro[3,4-c]quinoline-8-carboxamide and 4-amino-N-((1S)-1-(6-chloro-3-pyridinyl)ethyl)-N-ethyl-1,3-dihydrofuro[3,4-c]quinoline-8-carboxamide] | 12300 | 279 |
| COC[C@@H](C)N(Cc1ccc(C(F)(F)F)cn1)C(=O)c1cc2c3c(c(N)nc2cn1)COC3 [Example 728, 4-amino-N-((2R)-1-methoxy-2-propanyl)-N-((5-(trifluoromethyl)-2-pyridinyl)methyl)-1,3-dihydrofuro[3,4-c][1,7]naphthyridine-8-carboxamide] | 663 | 47 |
| CN(Cc1ccc(C(F)(F)C(F)(F)F)cc1)C(=O)c1cc2c(cn1)nc(N)c1cnn(C)c12 [Example 562, 4-amino-N,1-dimethyl-N-(4-(pentafluoroethyl)benzyl)-1H-pyrazolo[4,3-c][1,7]naphthyridine-8-carboxamide] | 3530 | 86 |
| CCN(C(=O)c1cc2c3c(c(N)nc2cc1F)COC3)C(C)c1ccc(C(F)(F)F)cn1 (racemic) [Example 719, 4-amino-N-ethyl-7-fluoro-N-((1R)-1-(5-(trifluoromethyl)-2-pyridinyl)ethyl)-1,3-dihydrofuro[3,4-c]quinoline-8-carboxamide and 4-amino-N-ethyl-7-fluoro-N-((1S)-1-(5-(trifluoromethyl)-2-pyridinyl)ethyl)-1,3-dihydrofuro[3,4-c]quinoline-8-carboxamide] | 21800 | 1030 |
| CN(Cc1ccc(C(F)(F)F)nn1)C(=O)c1cc2c(cc1Cl)nc(N)c1cnn(C)c12 [Example 792, 4-amino-7-chloro-N,1-dimethyl-N-((6-(trifluoromethyl)-3-pyridazinyl)methyl)-1H-pyrazolo[4,3-c]quinoline-8-carboxamide] | 2330 | 30 |
| C[C@H](c1ncccn1)N(Cc1cc2c(cn1)OCCC2)C(=O)c1ccc2nc(N)c3c(c2c1)COC3 [Example 469, 4-amino-N-(3,4-dihydro-2H-pyrano [2,3-c]pyridin-6-ylmethyl)-N-((1R)-1-(2-pyrimidinyl)ethyl)-1,3-dihydrofuro[3,4-c]quinoline-8-carboxamide] | 550 | 25 |
| CCN(C(=O)c1ccc2nc(N)c3c(c2c1)COC3)[C@@H](C)c1ccc(C#N)cc1 (single isomer, unassigned) [Example 836] | 38700 | 3640 |
| CCN(Cc1cnc(C(F)(F)F)cn1)C(=O)c1cc2c3c(c(N)nc2cc1Cl)COC3 [Example 498, 4-amino-7-chloro-N-ethyl-N-((5-(trifluoromethyl)-2-pyrazinyl)methyl)-1,3-dihydrofuro[3,4-c]quinoline-8-carboxamide] | 12700 | 266 |
| CC1OCc2c1c(N)nc1ccc(C(=O)N(Cc3ccc(C(F)(F)F)cn3)C3CC34CCCCC4)cc21 (stereo not drawn) [Example 905, 4-amino-3-methyl-N-(spiro[2.5]octan-1-yl)-N-((5-(trifluoromethyl)pyridin-2-yl)methyl)-1,3-dihydrofuro[3,4-c]quinoline-8-carboxamide] | 4600 | 80 |
| COc1nc(CN(C(=O)c2cc3c4c(c(N)nc3cn2)COC4)C(C)C)ccc1Cl [Example 685, 4-amino-N-((5-chloro-6-methoxy-2-pyridinyl)methyl)-N-(2-propanyl)-1,3-dihydrofuro[3,4-c][1,7]naphthyridine-8-carboxamide] | > 10000 | 201 |
| Cn1cc(N(Cc2ccc(C(F)(F)F)cc2)C(=O)c2cc3c4c(c(N)nc3cn2)COC4)cn1 [Example 882, 4-amino-N-(1-methyl-1H-pyrazol-4-yl)-N-(4-(trifluoromethyl)benzyl)-1,3-dihydrofuro[3,4-c][1,7]naphthyridine-8-carboxamide 2,2,2-trifluoroacetate] | 1340 | 62 |
| C[C@H](c1ncccn1)N(Cc1ccc(C(F)(F)F)cn1)C(=O)c1ccc2nc(N)c3c(c2c1)OCC3 [Example 888, 4-amino-N-[(1R)-1-pyrimidin-2-ylethyl]-N-[[5-(trifluoromethyl)-2-pyridyl]methyl]-2,3-dihydrofuro[3,2-c]quinoline-8-carboxamide] | 231 | 21 |
| CC(C)N(Cc1ccc(C(F)(F)F)cn1)C(=O)c1cc2c(cn1)nc(N)c1ncncc12 [Example 760, 5-amino-N-(2-propanyl)-N-((5-(trifluoromethyl)-2-pyridinyl)methyl)pyrimido[4,5-c][1,7]naphthyridine-9-carboxamide] | 6100 | 743 |
| Cn1cc(N(Cc2ccc(C(F)(F)F)cn2)C(=O)c2cc3c4c(c(N)nc3cn2)CCC4)cn1 [Example 492, 6-amino-N-(1-methyl-1H-pyrazol-4-yl)-N-((5-(trifluoromethyl)-2-pyridinyl)methyl)-8,9-dihydro-7H-cyclopenta[c][1,7]naphthyridine-2-carboxamide] | 622 | 48 |
| CC(C)CN(Cc1ccc(C(F)(F)F)nn1)C(=O)c1cc2c3c(c(N)nc2cn1)COC3 [Example 670, 4-amino-N-(2-methylpropyl)-N-((6-(trifluoromethyl)-3-pyridazinyl)methyl)-1,3-dihydrofuro[3,4-c][1,7]naphthyridine-8-carboxamide] | 8020 | 170 |
| C[C@@H](c1ncccn1)N(Cc1ccc(C(F)(F)F)nn1)C(=O)c1ccc2nc(N)c3c(c2c1)COC3 [Example 440, 4-amino-N-((1S)-1-(2-pyrimidinyl)ethyl)-N-((6-(trifluoromethyl)-3-pyridazinyl)methyl)-1,3-dihydrofuro[3,4-c]quinoline-8-carboxamide] | > 10000 | 461 |
| CCN(Cc1ccc(OC(F)F)nn1)C(=O)c1cc2c3c(c(N)nc2cc1F)COC3 [Example 724, 4-amino-N-((6-(difluoromethoxy)-3-pyridazinyl)methyl)-N-ethyl-7-fluoro-1,3-dihydrofuro[3,4-c]quinoline-8-carboxamide] | 2440 | 54 |
| CC[C@@H](c1ccc(C(F)(F)F)cn1)N(C)C(=O)c1cc2c3c(c(N)nc2cn1)COC3 (single isomer, unassigned) [Example 850] | > 50000 | 8340 |
| C[C@H]1OCc2c1c(N)nc1ccc(C(=O)N(Cc3ccc(C#N)cn3)CC3CC3)cc21 [Example 331, (3R)-4-amino-N-((5-cyano-2-pyridinyl)methyl)-N-(cyclopropylmethyl)-3-methyl-1,3-dihydrofuro[3,4-c]quinoline-8-carboxamide] | 2300 | 28 |
| CCN(Cc1ccc(C(F)(F)F)cn1)C(=O)c1ccc2nc(N)c3c(c2c1)CO[C@@H]3C [Example 360, (3R)-4-amino-N-ethyl-3-methyl-N-((5-(trifluoromethyl)-2-pyridinyl)methyl)-1,3-dihydrofuro[3,4-c]quinoline-8-carboxamide] | 3070 | 53 |
| CN(Cc1ccc(C(F)(F)F)nn1)C(=O)c1cc2c3c(c(N)nc2cc1F)COC3 [Example 359, 4-amino-7-fluoro-N-methyl-N-((6-(trifluoromethyl)-3-pyridazinyl)methyl)-1,3-dihydrofuro[3,4-c]quinoline-8-carboxamide] | 10200 | 226 |
| CCN(Cc1ccc(C2CC2)cn1)C(=O)c1ccc2nc(N)c3cnn(C)c3c2c1 [Example 540, 4-amino-N-((5-cyclopropyl-2-pyridinyl)methyl)-N-ethyl-1-methyl-1H-pyrazolo[4,3-c]quinoline-8-carboxamide] | 1480 | 39 |
| Cn1cc(N(Cc2ccc(C(F)(F)F)cn2)C(=O)c2cc3c4c(c(N)nc3cc2F)COC4)cn1 [Example 714, 4-amino-7-fluoro-N-(1-methyl-1H-pyrazol-4-yl)-N-((5-(trifluoromethyl)-2-pyridinyl)methyl)-1,3-dihydrofuro[3,4-c]quinoline-8-carboxamide] | 124 | 8 |
| CC(C)N(Cc1ccc(C(F)(F)F)cn1)C(=O)c1cc2c(cn1)nc(N)c1ccncc12 [Example 756, 5-amino-N-(2-propanyl)-N-((5-(trifluoromethyl)-2-pyridinyl)methyl)pyrido[4,3-c][1,7]naphthyridine-9-carboxamide] | 744 | 49 |
